According to US7183415B2, “Quinoline compound” (Takeda Pharmaceutical Company Limited, priority 2001, dated 2007):

Structure (SMILES) | melting point [°C]
Cc1c(NC(=O)c2ccc(-c3ccccc3)c(F)c2)ccc2cc(CN3CCCCCC3)cnc12 (hydrate or solvate) [Example 188, N-[3-(1-azepanylmethyl)-8-methyl-7-quinolinyl]-2-fluoro[1,1′-biphenyl]-4-carboxamide] | 129 to 130
Cc1c(NC(=O)c2ccc(-c3ccc(F)cc3)cc2)ccc2cc(CN3[C@H](C)CCC[C@@H]3C)cnc12 [Example 193, N-(3-{[(2R,6S)-2,6-dimethylpiperidinyl]methyl}-8-methyl-7-quinolinyl)-4′-fluoro[1,1′-biphenyl]-4-carboxamide] | 167 to 168
CCNC(=O)CC1CCN(Cc2cnc3c(C)c(NC(=O)c4ccc(-c5ccc(F)cc5)cc4)ccc3c2)CC1 [Example 203, N-[3-({4-[2-(ethylamino)-2-oxoethyl]-1-piperidinyl}methyl)-8-methyl-7-quinolinyl]-4′-fluoro[1,1′-biphenyl]-4-carboxamide] | 243 to 245
COc1ccc(-c2ccc(C(=O)Nc3ccc4cc(CN5CCCCC5)cnc4c3C)c(F)c2)cc1 [Example 171, 3-fluoro-4′-methoxy-N-[8-methyl-3-(1-piperidinylmethyl)-7-quinolinyl][1,1′-biphenyl]-4-carboxamide] | 191 to 192
Cc1ccc(C2CCN(C(=O)Nc3ccc4cc(CN5CCCC5)cnc4c3)CC2)cc1 [Example 15, 4-(4-methylphenyl)-N-[3-(1-pyrrolidinylmethyl)-7-quinolinyl]-1-piperidine carboxamide] | 244 to 246
Cc1ccc(-c2ccc(C(=O)Nc3ccc4cc(CN5CCCC5)cnc4c3C)c(F)c2)cc1 [Example 135, 3-fluoro-4′-methyl-N-[8-methyl-3-(1-pyrrolidinylmethyl)-7-quinolinyl][1,1′-biphenyl]-4-carboxamide] | 180 to 182
Cc1c(NC(=O)c2ccc(-c3ccc(F)cc3)cc2)ccc2cc(CN(C(C)C)C(C)C)cnc12 [Example 194, N-{3-[(diisopropylamino)methyl]-8-methyl-7-quinolinyl}-4′-fluoro[1,1′-biphenyl]-4-carboxamide] | 179 to 180
Cc1c(NC(=O)c2ccc(-c3ccc4c(c3)CCCCO4)cc2)ccc2cc(CN3CCCC3)cnc12 [Example 116, N-[8-methyl-3-(1-pyrrolidinylmethyl)-7-quinolinyl]-4-(2,3,4,5-tetrahydro-1-benzoxepin-7-yl)benzamide] | 162 to 163
Cc1c(NC(=O)c2ccc(-c3ccc(F)cc3)cc2F)ccc2cc(CN3CCCCC3)cnc12 [Example 170, 3,4′-difluoro-N-[8-methyl-3-(1-piperidinylmethyl)-7-quinolinyl][1,1′-biphenyl]-4-carboxamide] | 186 to 187
Cc1cc2cc(CN3CCCCCC3)cnc2cc1NC(=O)c1ccc(-c2ccc(Cl)s2)cc1 [Example 241, N-[3-(1-azepanylmethyl)-6-methyl-7-quinolinyl]-4-(5-chlorothien-2-yl)benzamide] | 180
O=C(Nc1ccc2cc(CN3CCCCCC3)cnc2c1)c1ccc(-c2ccc(F)cc2)cc1 [Example 29, N-[3-(1-azepanylmethyl)-7-quinolinyl]-4′-fluoro[1,1′-biphenyl]-4-carboxamide] | 202
Cc1cc2cc(CN3CCCCCC3)cnc2cc1NC(=O)c1ccc(-c2ccc(Cl)cc2)cc1 [Example 238, N-[3-(1-azepanylmethyl)-6-methyl-7-quinolinyl]-4′-chloro[1,1′-biphenyl]-4-carboxamide] | 204
Cc1c(NC(=O)c2ccc(-c3cc4ccccc4s3)cc2)ccc2cc(CN3CCCC3)cnc12 (hydrate or solvate) [Example 120, 4-(1-benzothien-2-yl)-N-[8-methyl-3-(1-pyrrolidinylmethyl)-7-quinolinyl]benzamide] | 217 to 218
CCCC(=O)Oc1ccc(C(=O)Nc2ccc3cc(CN4CCCC4)cnc3c2C)cc1 [Example 331, 4-({[8-methyl-3-(1-pyrrolidinylmethyl)-7-quinolinyl]amino}carbonyl)phenyl butyrate] | 156 to 158
COc1ccc(-c2ccc(C(=O)Nc3ccc4cc(CN5CCCCCC5)cnc4c3C)c(F)c2)cc1 [Example 185, N-[3-(1-azepanylmethyl)-8-methyl-7-quinolinyl]-3-fluoro-4′-methoxy[1,1′-biphenyl]-4-carboxamide] | 171 to 172
Cc1cc2cc(CN3CCCCC3)cnc2cc1NC(=O)c1ccc(-c2ccc(F)cc2)cc1 [Example 250, 4′-fluoro-N-[6-methyl-3-(1-piperidinylmethyl)-7-quinolinyl][1,1′-biphenyl]-4-carboxamide] | 185 to 188
Cc1c(NC(=O)c2ccc(-c3ccc(F)cc3)c(F)c2)ccc2cc(CN3CCCCC3)cnc12 (hydrate or solvate) [Example 176, 2,4′-difluoro-N-[8-methyl-3-(1-piperidinylmethyl)-7-quinolinyl][1,1′-biphenyl]-4-carboxamide] | 161 to 162
Cc1c(NC(=O)c2ccc(-c3ccc(F)cc3)cc2)ccc2cc(CN3CCOCC3)cnc12 [Example 198, 4′-fluoro-N-[8-methyl-3-(4-morpholinylmethyl)-7-quinolinyl][1,1′-biphenyl]-4-carboxamide] | 176 to 178

Structure (SMILES) | melting point [°C]
COc1ccc(-c2ccc(C(=O)Nc3ccc4cc(CN5CCCC5)cnc4c3C)cn2)cc1 [Example 96, 6-(4-methoxyphenyl)-N-[8-methyl-3-(1-pyrrolidinylmethyl)-7-quinolinyl]nicotinamide] | 180 to 182
Cc1c(NC(=O)c2ccc(-c3ccc(F)cc3)cc2F)ccc2cc(CN3CCCC3)cnc12 [Example 145, 3,4′-difluoro-N-[8-methyl-3-(1-pyrrolidinylmethyl)-7-quinolinyl][1,1′-biphenyl]-4-carboxamide] | 176 to 178
CCN(CC)C(=O)CC1CCN(Cc2cnc3cc(NC(=O)c4ccc(-c5ccc(F)cc5)cc4)c(C)cc3c2)CC1 [Example 266, N-[3-({4-[2-(diethylamino)-2-oxoethyl]-1-piperidinyl}methyl)-6-methyl-7-quinolinyl]-4′-fluoro[1,1′-biphenyl]-4-carboxamide] | 197
O=C(Nc1cc2ncc(CN3CCCC3)cc2cc1F)c1ccc(-c2ccc(F)cc2)cc1 [Example 50, 4′-fluoro-N-[6-fluoro-3-(1-pyrrolidinylmethyl)-7-quinolinyl][1,1′-biphenyl]-4-carboxamide] | 198 to 200
Cc1cc2cc(CN3CCC(CCC(N)=O)CC3)cnc2cc1NC(=O)c1ccc(-c2ccc(F)cc2)cc1 [Example 253, N-(3-{[4-(3-amino-3-oxopropyl)-1-piperidinyl]methyl}-6-methyl-7-quinolinyl)-4′-fluoro[1,1′-biphenyl]-4-carboxamide] | 223 to 227
COc1ccc(-c2ccc(C(=O)Nc3ccc4cc(CN5CCCC5)cnc4c3F)cc2)cc1 [Example 72, N-[8-fluoro-3-(1-pyrrolidinylmethyl)-7-quinolinyl]-4′-methoxy[1,1′-biphenyl]-4-carboxamide] | 217 to 220
Cc1cc(-c2ccc(F)cc2)ccc1C(=O)Nc1ccc2cc(CN3CCCC3)cnc2c1C [Example 158, 4′-fluoro-3-methyl-N-[8-methyl-3-(1-pyrrolidinylmethyl)-7-quinolinyl][1,1′-biphenyl]-4-carboxamide] | 200 to 203
CCNC(=O)CC1CCN(Cc2cnc3cc(NC(=O)c4ccc(-c5ccc(F)cc5)cc4)c(C)cc3c2)CC1 [Example 267, N-[3-({4-[2-(ethylamino)-2-oxoethyl]-1-piperidinyl}methyl)-6-methyl-7-quinolinyl]-4′-fluoro[1,1′-biphenyl]-4-carboxamide] | 251
O=C(Nc1ccc2cc(CN3CCCC3)cnc2c1)c1ccc(-c2ccc(F)cc2)cc1 [Example 4, 4′-fluoro-N-[3-(1-pyrrolidinylmethyl)-7-quinolinyl][1,1′-biphenyl]-4-carboxamide] | 210 to 212
Cc1cc2cc(CN3CCCC3)cnc2cc1NC(=O)c1ccc(-c2ccsc2)cc1 [Example 223, N-[6-methyl-3-(1-pyrrolidinylmethyl)-7-quinolinyl]-4-thien-3-ylbenzamide] | 187
O=C(Nc1ccc2cc(CN3CCCC3)cnc2c1)c1ccc(-c2ccccc2)cc1F [Example 88, 3-fluoro-N-[3-(1-pyrrolidinylmethyl)-7-quinolinyl][1,1′-biphenyl]-4-carboxamide] | 166
CSc1ccc(-c2ccc(C(=O)Nc3ccc4cc(CN5CCCC5)cnc4c3C)cc2)cc1 (hydrate or solvate) [Example 110, N-[8-methyl-3-(1-pyrrolidinylmethyl)-7-quinolinyl]-4′-(methylsulfanyl)[1,1′-biphenyl]-4-carboxamide] | 206 to 208
Cc1c(NC(=O)c2ccc(-c3ccc(F)cc3)cc2)ccc2cc(CN3CCCCC3)cnc12 [Example 166, 4′-fluoro-N-[8-methyl-3-(1-piperidinylmethyl)-7-quinolinyl][1,1′-biphenyl]-4-carboxamide] | 188 to 190
CNC(=O)CCCC1CCN(Cc2cnc3c(C)c(NC(=O)c4ccc(-c5ccc(F)cc5)cc4)ccc3c2)CC1 [Example 207, 4′-fluoro-N-[8-methyl-3-({4-[4-(methylamino)-4-oxobutyl]-1-piperidinyl}methyl)-7-quinolinyl][1,1′-biphenyl]-4-carboxamide] | 210 to 212
Cc1c(NC(=O)c2ccc(OCc3ccc(F)cc3)cc2)ccc2cc(CN3CCCCC3)cnc12 [Example 162, 4-[(4-fluorobenzyl)oxy]-N-[8-methyl-3-(1-piperidinylmethyl)-7-quinolinyl]benzamide] | 159 to 160
Cc1ccc(-c2ccc(C(=O)Nc3ccc4cc(CN5CCCC5)cnc4c3F)c(F)c2)cc1 [Example 278, 3-fluoro-N-[8-fluoro-3-(1-pyrrolidinylmethyl)-7-quinolinyl]-4′-methyl[1,1′-biphenyl]-4-carboxamide] | 173
Cc1c(NC(=O)c2ccc(-c3cc4ccccc4o3)cc2)ccc2cc(CN3CCCC3)cnc12 (hydrate or solvate) [Example 106, 4-(1-benzofuran-2-yl)-N-[8-methyl-3-(1-pyrrolidinylmethyl)-7-quinolinyl]benzamide] | 217 to 218
